Here are results for three compounds from ChEMBL document CHEMBL6071176, “Development of Phloroglucinol-Linked Tris-Quaternary Ammonium Salt Antimicrobial Peptide Mimics with Low Cytotoxicity and Broad-Spectrum Antibacterial Activity” (J Med Chem, 2024).

≈ marks a conversion by molar mass, not a printed value. Calls of active or inactive are those of the source.

Data set [1] can be described thus: Selectivity index, ratio of HC50 for human erythrocytes to MIC for methicillin-resistant Staphylococcus aureus. Format: toxicity, cell-based, RBC. As to conditions: read-out: Selectivity Index.
Data set [2] relates to Staphylococcus aureus. As to the kind of experiment: Antibacterial activity against methicillin-resistant Staphylococcus aureus. The class given is functional.
Data set [3] is described as follows: Hemolytic activity in human erythrocytes. The class given is toxicity, cell-based, Erythrocyte.
Data set [4] has as its system Escherichia coli. As to the kind of experiment: Bactericidal activity against early exponential phase Escherichia coli assessed as bacterial killing at 6 ug/ml incubated for 12 hrs by time-kill assay. The class given is functional, organism-based. As to conditions: dose 6.0 µg/ml.
Data set [5] has as its system Escherichia coli. Put plainly: Bactericidal activity against early exponential phase Escherichia coli assessed as bacterial killing at 6 ug/ml incubated for 6 hrs by time-kill assay. Format: functional, organism-based. As to conditions: dose 6.0 µg/ml.
Data set [6] has as its system Escherichia coli. Put plainly: Bactericidal activity against late exponential phase Escherichia coli assessed as bacterial killing by measuring bacterial count at 8 ug/ml incubated for 12 hrs by time-kill assay (reference value: 10^8.4 CFU/ml). The class given is functional. The following applies: dose 8 µg/ml.
The test system of data set [7] is Staphylococcus aureus. Put plainly: In vivo antibacterial activity against methicillin-resistant Staphylococcus aureus subcutaneously infected in SPF female Kunming mouse model assessed as bacteria count in dissected mouse at 10 mg/kg/day injected into blister after 6 hrs of infection measured after 6 consecutive treatments. Format: functional, organism-based.
Data set [8] relates to Staphylococcus aureus. Put plainly: Anti-bacterial activity against 100 times rifampicin induced persistent cells of Staphylococcus aureus assessed as reduction in persistent cells at 32 times of MIC. Format: functional.
The subject of data set [9] is Staphylococcus aureus. Put plainly: Bactericidal activity against early exponential phase Staphylococcus aureus assessed as bacterial killing at 6 ug/ml incubated for 4 hrs by time-kill assay. As to conditions: dose 6.0 µg/ml. Format: functional, organism-based.
The test system of data set [10] is Staphylococcus aureus. Put plainly: Bactericidal activity against early exponential phase Staphylococcus aureus assessed as bacterial killing at 6 ug/ml incubated for 12 hrs by time-kill assay. Format: functional, organism-based. The following applies: dose 6.0 µg/ml.
Data set [11] can be described thus: Hemolytic activity in sheep red blood cells measured after 1 hr incubation. The class given is toxicity, cell-based, Ovis aries, Erythrocyte.
Data set [12] deals with Staphylococcus aureus. Put plainly: Antibacterial activity against methicillin-resistant Staphylococcus aureus assessed as inhibition of bacterial growth measured immediately after addition in presence of plasma. The class given is functional, organism-based.
Data set [13] relates to Escherichia coli. Put plainly: Antimicrobial activity against Escherichia coli assessed as inhibition of growth incubated for 18 hrs by CLSI guidelines based assay. The class given is functional.
For data set [14], the system named is Staphylococcus aureus. Put plainly: Anti-biofilim activity against Staphylococcus aureus biofilm assessed bio-film thickness at 32 ug/ml measured after 24 hrs incubation by SYTO 9 staining based […] laser scanning microscopy (CLSM) (reference value: 29.5 microm). The class given is functional. The following applies: dose 32 µg/ml.

What is called MIC is the smallest concentration in the dilution series that meets the test's criterion for growth inhibition. What is called HC50 is the concentration that lyses half of the red blood cells.

With `CCCCCCN(CCCOc1ccccc1-c1ccccc1OCCCN(CCCCCC)C(=O)[C@@H](N)CCCCN)C(=O)[C@@H](N)CCCCN.Cl.Cl.Cl.Cl`, the selectivity ratio in data set [1] was more than 2000. The minimal inhibitory concentration (MIC) with Staphylococcus aureus [2] amounted to 0.5 µg/mL. The concentration for 50% haemolysis (HC50) in data set [3] is more than 1000 µg/mL.

`CO[C@@]1(NC(=O)C(C(=O)O)c2ccc(O)cc2)C(=O)N2C(C(=O)O)=C(CSc3nnnn3C)CO[C@@H]21` (some centres undefined) [MOXALACTAM]: the result in the data set with Escherichia coli [4] and in the data set with Escherichia coli [5] was Active. The Activity in the data set with Escherichia coli [6] is 1 10^4CFU/ml.

Turning to `CN[C@H](CC(C)C)C(=O)N[C@H]1C(=O)N[C@@H](CC(N)=O)C(=O)N[C@H]2C(=O)N[C@H]3C(=O)N[C@H](C(=O)N[C@H](C(=O)O)c4cc(O)cc(O)c4-c4cc3ccc4O)[C@H](O)c3ccc(c(Cl)c3)Oc3cc2cc(c3O[C@@H]2O[C@H](CO)[C@@H](O)[C@H](O)[C@H]2O[C@H]2C[C@](C)(N)[C@H](O)[C@H](C)O2)Oc2ccc(cc2Cl)[C@H]1O` [VANCOMYCIN], the result in the data set with Staphylococcus aureus [7], in the data set on Staphylococcus aureus [9], with Staphylococcus aureus [10] and with Staphylococcus aureus [12] was Active. Further, the Activity amounted to 3.2 log10CFU/ml in the data set on Staphylococcus aureus [8] and 22.1 um in the data set with Staphylococcus aureus [14]. Besides, the HC50 at 1 h in [11] stood at 805 µg/mL. The minimal inhibitory concentration (MIC) in the data set on Escherichia coli [13] came out at 2 µg/mL (≈ 1.38 µM).
